Key:
[1] = target: PHD1 (EGLN2) (Homo sapiens (Human), UniProt Q96KS0); test: HIF-PH assay (14CO2 capture), PHD1 enzyme inhibition; format: biochemical; details: Table 1; for IC50: individual measurement, read-out: IC50 (μM) PHD1; for PHD2/PHD1: ratio of the IC50 of the compound for each enzyme
[2] = target: PHD2 (EGLN1) (Homo sapiens (Human), UniProt Q9GZT9); test: HIF-PH assay (14CO2 capture), PHD2 enzyme inhibition; format: biochemical; details: Table 1; individual measurement; read-out: IC50 (μM) PHD2
PHD2 (EGLN1), sequence (Q9GZT9 whole entry): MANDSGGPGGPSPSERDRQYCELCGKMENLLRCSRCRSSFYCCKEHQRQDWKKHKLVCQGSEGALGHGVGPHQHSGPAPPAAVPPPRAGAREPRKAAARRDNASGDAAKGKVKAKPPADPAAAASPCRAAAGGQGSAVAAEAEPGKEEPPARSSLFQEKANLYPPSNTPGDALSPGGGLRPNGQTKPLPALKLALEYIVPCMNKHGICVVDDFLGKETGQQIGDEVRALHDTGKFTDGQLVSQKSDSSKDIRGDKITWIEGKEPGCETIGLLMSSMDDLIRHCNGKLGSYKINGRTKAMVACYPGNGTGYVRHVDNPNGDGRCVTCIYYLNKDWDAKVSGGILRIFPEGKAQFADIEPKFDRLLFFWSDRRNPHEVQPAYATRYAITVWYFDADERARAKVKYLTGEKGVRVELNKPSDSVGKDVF

PHD1 (EGLN2), sequence (Q96KS0 whole entry): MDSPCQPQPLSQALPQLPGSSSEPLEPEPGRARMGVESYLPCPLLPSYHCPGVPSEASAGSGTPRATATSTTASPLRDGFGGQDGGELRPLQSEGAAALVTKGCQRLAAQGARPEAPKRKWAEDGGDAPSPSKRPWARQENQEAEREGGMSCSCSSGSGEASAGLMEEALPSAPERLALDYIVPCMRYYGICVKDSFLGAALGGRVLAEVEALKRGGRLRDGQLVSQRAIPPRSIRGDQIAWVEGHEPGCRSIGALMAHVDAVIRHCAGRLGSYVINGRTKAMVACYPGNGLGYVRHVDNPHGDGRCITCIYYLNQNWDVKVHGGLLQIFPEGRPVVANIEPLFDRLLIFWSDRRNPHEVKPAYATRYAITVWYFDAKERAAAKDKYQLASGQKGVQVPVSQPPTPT

| Structure (SMILES) | IC50 [1] [µM] | PHD2/PHD1 [1] | IC50 [2] [µM] |
| --- | --- | --- | --- |
| O=C(O)CCCCNC(=O)c1ncc2cc(Oc3c(F)cccc3F)ccc2c1O [Compound 100, 5-{[7-(2,6-Difluoro-phenoxy)-4-hydroxy-isoquinoline-3-carbonyl]-amino}-pentanoic acid] | 23.1 | 9 | 200 |
| O=C(O)CCCNC(=O)c1ncc2cc(NC(=O)NC3CCCCC3)ccc2c1O [Compound 131, 4-{[7-(3-Cyclohexyl-ureido)-4-hydroxy-isoquinoline-3-carbonyl]-amino}-butyric acid] | 3.16 | 25 | 77.6 |
| C[C@@H](CC(=O)O)NC(=O)c1nc(C#N)c2cc(Oc3ccccc3)ccc2c1O [Compound 78, 3-(S)-[(1-Cyano-4-hydroxy-7-phenoxy-isoquinoline-3-carbonyl)-amino]-butyric acid] | 3.27 | 30 | 96.8 |
| O=C(O)CCCNC(=O)c1ncc2cc(NC(=O)Nc3ccccc3)ccc2c1O [Compound 119, 4-{[4-Hydroxy-7-(3-phenyl-ureido)-isoquinoline-3-carbonyl]-amino}-butyric acid] | 12.6 | 6 | 72.3 |
| Cc1cccc(C)c1Oc1ccc2c(C#N)nc(C(=O)NCCCC(=O)O)c(O)c2c1 [Compound 110, 4-{[1-Cyano-6-(2,6-dimethyl-phenoxy)-4-hydroxy-isoquinoline-3-carbonyl]-amino}-butyric acid] | 3.63 | 6 | 21.3 |
| CC(C)(CNC(=O)c1nc(C#N)c2cc(NC(=O)Nc3ccccc3)ccc2c1O)C(=O)O [Compound 140, 3{-[1-Cyano-4-hydroxy-7-(3-phenyl-ureido)-isoquinoline-3-carbonyl]-amino}-2,2-dimethyl-propionic acid] | 2.81 | 12 | 33.5 |
| N#Cc1nc(C(=O)N[C@@H](CC(=O)O)c2cccnc2)c(O)c2ccc(Oc3ccccc3)cc12 [Compound 175, 3-(S)-[(1-Cyano-4-hydroxy-7-phenoxy-isoquinoline-3-carbonyl)-amino]-3-pyridin-3-yl-propionic acid] | 4.51 | 6 | 25.1 |
| Cc1ccccc1[C@H](CC(=O)O)NC(=O)c1nc(C#N)c2cc(Oc3ccccc3)ccc2c1O [Compound 171, 3-(S)-[(1-Cyano-4-hydroxy-7-phenoxy-isoquinoline-3-carbonyl)-amino]-3-o-tolyl-propionic acid] | 5.26 | 9 | 45.7 |

Continued by falling IC50 [1], values first:

| IC50 [1] [µM] | PHD2/PHD1 [1] | IC50 [2] [µM] | Structure (SMILES) |
| --- | --- | --- | --- |
| 2.77 | 39 | 107 | C[C@H](NC(=O)c1nc(C#N)c2cc(Oc3ccccc3)ccc2c1O)[C@H](C)C(=O)O [Compound 71, (2S,3S)-3-[(1-Cyano-4-hydroxy-7-phenoxy-isoquinoline-3-carbonyl)-amino]-2-methyl-butyric acid] |
| 1.55 | 5 | 7.64 | N#Cc1nc(C(=O)N[C@H](Cc2ccccc2)[C@H](O)C(=O)O)c(O)c2ccc(Oc3ccccc3)cc12 [Compound 74, (2S,3R)-3-(1-Cyano-4-hydroxy-7-phenoxyisoquinoline-3-carboxamido)-2-hydroxy-4-phenylbutanoic acid] |
| 0.26 | 7 | 1.8 | N#Cc1nc(C(=O)NCCC(=O)C(=O)O)c(O)c2ccc(Oc3ccccc3)cc12 [Compound 56, 4-(1-Cyano-4-hydroxy-7-phenoxyisoquinoline-3-carboxamido)-2-oxobutanoic acid] |
| 0.24 | 12 | 2.75 | N#Cc1nc(C(=O)NCC[C@H](O)C(=O)O)c(O)c2ccc(Oc3ccccc3)cc12 [Compound 83, 4-[(1-Cyano-4-hydroxy-7-phenoxy-isoquinoline-3-carbonyl)-amino]-2-(S)-hydroxy-butyric acid] |

Reference: patent US9409892B2, “4-hydroxy-isoquinoline compounds as HIF hydroxylase inhibitors” (FIBROGEN, INC., priority 2012, dated 2016)
